Assay results published in ChEMBL document CHEMBL2073815, “Induction of hepatic phase II drug-metabolizing enzymes by 1,7-phenanthroline in rats is accompanied by induction of MRP3” (Drug Metab Dispos, 2003).

Assays:
Assay type in all cases: functional, organism-based
[1] = molecular target: T1, Solute carrier organic anion transporter family member 1A4 (Rattus norvegicus, UniProt O35913); test: (§1) TP_TRANSPORTER: quantitative PCR in vivo, liver of male Sprague-Dawley rat
T1 sequence (O35913 whole entry): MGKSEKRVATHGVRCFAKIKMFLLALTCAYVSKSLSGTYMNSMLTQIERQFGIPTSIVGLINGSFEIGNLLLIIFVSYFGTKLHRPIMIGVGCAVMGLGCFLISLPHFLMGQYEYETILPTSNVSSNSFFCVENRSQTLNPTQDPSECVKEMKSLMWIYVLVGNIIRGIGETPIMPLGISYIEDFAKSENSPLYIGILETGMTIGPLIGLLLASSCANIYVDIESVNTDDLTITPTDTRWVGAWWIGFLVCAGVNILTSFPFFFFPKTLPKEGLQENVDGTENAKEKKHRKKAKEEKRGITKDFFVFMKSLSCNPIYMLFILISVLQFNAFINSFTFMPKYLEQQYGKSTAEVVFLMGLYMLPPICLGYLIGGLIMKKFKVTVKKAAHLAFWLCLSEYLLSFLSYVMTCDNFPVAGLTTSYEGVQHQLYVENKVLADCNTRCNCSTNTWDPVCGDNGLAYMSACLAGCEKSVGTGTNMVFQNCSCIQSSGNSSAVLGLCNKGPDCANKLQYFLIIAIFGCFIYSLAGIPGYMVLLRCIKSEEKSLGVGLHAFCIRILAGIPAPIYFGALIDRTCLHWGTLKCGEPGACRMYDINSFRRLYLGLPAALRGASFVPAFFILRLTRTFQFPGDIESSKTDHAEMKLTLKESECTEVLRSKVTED

[2] = molecular target: T2, ATP-binding cassette sub-family C member 3 (Rattus norvegicus, UniProt O88563); test: as §1
T2 sequence (O88563 whole entry): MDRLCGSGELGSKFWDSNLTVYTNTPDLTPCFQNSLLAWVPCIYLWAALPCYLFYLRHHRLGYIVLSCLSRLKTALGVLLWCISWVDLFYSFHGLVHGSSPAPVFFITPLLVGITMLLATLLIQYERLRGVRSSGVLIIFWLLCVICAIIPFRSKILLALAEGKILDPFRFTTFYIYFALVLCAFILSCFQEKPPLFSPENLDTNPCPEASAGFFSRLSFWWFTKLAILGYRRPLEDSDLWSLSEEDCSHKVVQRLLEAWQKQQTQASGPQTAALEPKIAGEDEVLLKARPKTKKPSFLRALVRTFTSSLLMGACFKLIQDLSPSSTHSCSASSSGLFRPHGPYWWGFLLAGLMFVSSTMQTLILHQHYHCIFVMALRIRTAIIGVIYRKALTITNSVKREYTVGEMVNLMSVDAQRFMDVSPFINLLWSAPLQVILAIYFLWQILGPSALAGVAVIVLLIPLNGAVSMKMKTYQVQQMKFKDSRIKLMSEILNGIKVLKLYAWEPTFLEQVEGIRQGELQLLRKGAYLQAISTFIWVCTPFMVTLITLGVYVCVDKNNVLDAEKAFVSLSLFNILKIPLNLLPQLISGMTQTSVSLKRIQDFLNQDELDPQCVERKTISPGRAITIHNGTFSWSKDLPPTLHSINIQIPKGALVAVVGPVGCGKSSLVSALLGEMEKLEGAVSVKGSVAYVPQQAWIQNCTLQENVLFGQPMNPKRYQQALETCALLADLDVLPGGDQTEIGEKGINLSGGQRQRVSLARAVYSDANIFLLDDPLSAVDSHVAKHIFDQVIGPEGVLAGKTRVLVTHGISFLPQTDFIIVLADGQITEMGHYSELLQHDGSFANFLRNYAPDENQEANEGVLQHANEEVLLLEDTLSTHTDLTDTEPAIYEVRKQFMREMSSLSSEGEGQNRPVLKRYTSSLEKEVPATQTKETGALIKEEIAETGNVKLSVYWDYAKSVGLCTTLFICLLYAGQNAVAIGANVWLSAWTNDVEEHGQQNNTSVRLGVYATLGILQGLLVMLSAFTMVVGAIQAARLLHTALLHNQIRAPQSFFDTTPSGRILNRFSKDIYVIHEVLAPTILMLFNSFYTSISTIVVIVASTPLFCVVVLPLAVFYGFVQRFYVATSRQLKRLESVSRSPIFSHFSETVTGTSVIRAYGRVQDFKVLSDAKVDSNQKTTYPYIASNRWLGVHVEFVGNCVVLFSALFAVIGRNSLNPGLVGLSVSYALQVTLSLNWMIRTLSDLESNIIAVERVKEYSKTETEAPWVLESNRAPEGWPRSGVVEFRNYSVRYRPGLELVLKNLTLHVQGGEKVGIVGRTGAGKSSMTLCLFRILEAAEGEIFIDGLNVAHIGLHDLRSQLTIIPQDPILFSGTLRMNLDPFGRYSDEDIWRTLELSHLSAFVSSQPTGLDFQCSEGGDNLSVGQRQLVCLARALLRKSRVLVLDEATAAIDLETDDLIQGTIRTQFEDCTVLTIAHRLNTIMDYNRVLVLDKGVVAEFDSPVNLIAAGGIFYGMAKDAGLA

[3] = molecular target: T2, ATP-binding cassette sub-family C member 3; test: TP_TRANSPORTER: quantitative PCR in vivo, […] of male Sprague-Dawley rat

Measured: Activity

c1cnc2c(c1)ccc1ncccc12
inducer []: [1] | [2] | [3]
